# Experimental data published in article PMC7354438 (Viruses, 2020).
# Where a name gives a salt, the structure may show the parent alone.
# Test system: not listed separately
# Assay: Drug combination test, mock-infected Vero-E6 cells (CTG)
# Type: cell-based
# Conditions: African green monkey, mock-infected Vero-E6 cells (control), single drug 0.008 uM (other drug 0), read-out: Relative viability (%)
row,Compound,"viability at 72 h, 0.008 uM [%]"
1,Cc1c(O)cccc1C(=O)N[C@@H](CSc1ccccc1)[C@H](O)CN1C[C@H]2CCCC[C@H]2C[C@H]1C(=O)NC(C)(C)C [Nelfinavir],100

# Same assay, conditions: African green monkey, mock-infected Vero-E6 cells (control), single drug 0.04 uM (other drug 0), read-out: Relative viability (%)
row,Compound,"viability at 72 h, 0.04 uM [%]"
1,Cc1c(O)cccc1C(=O)N[C@@H](CSc1ccccc1)[C@H](O)CN1C[C@H]2CCCC[C@H]2C[C@H]1C(=O)NC(C)(C)C [Nelfinavir],100

# Same assay, conditions: African green monkey, mock-infected Vero-E6 cells (control), single drug 0.2 uM (other drug 0), read-out: Relative viability (%)
row,Compound,"viability at 72 h, 0.2 uM [%]"
1,Cc1c(O)cccc1C(=O)N[C@@H](CSc1ccccc1)[C@H](O)CN1C[C@H]2CCCC[C@H]2C[C@H]1C(=O)NC(C)(C)C [Nelfinavir],96.5

# Same assay, conditions: African green monkey, mock-infected Vero-E6 cells (control), single drug 1.0 uM (other drug 0), read-out: Relative viability (%)
row,Compound,"viability at 72 h, 1 uM [%]"
1,Cc1c(O)cccc1C(=O)N[C@@H](CSc1ccccc1)[C@H](O)CN1C[C@H]2CCCC[C@H]2C[C@H]1C(=O)NC(C)(C)C [Nelfinavir],90.2

# Same assay, conditions: African green monkey, mock-infected Vero-E6 cells (control), single drug 5.0 uM (other drug 0), read-out: Relative viability (%)
row,Compound,"viability at 72 h, 5 uM [%]"
1,Cc1c(O)cccc1C(=O)N[C@@H](CSc1ccccc1)[C@H](O)CN1C[C@H]2CCCC[C@H]2C[C@H]1C(=O)NC(C)(C)C [Nelfinavir],80.7

# Test system: hCoV-19/Norway/Trondheim-E9/2020
# Assay: Drug test: viability of SARS-CoV-2-infected Vero-E6 cells (CellTiter-Glo)
# Type: cell-based
# Set-up: AUC: unit not given beside the values
# Conditions: not given
Compound,AUC,rescue of cells from virus-mediated death
CN1CCC[C@H]1c1cccnc1 [nicotine],239,rescued cells from virus-mediated death but altered the cell morphology

# Same assay, conditions: 72 h
row,Compound,AUC
1,C[C@@H]1O[C@@H](O[C@H]2C[C@@H](O)[C@]3(CO)[C@H]4[C@H](O)C[C@]5(C)[C@@H](C6=CC(=O)OC6)CC[C@]5(O)[C@@H]4CC[C@]3(O)C2)[C@H](O)[C@H](O)[C@H]1O [Ouabain octahydrate],"41,93"
2,CC(C)C[C@H]1C(=O)N2CCC[C@H]2[C@]2(O)O[C@](NC(=O)[C@@H]3C=C4c5cccc6[nH]c(Br)c(c56)C[C@H]4N(C)C3)(C(C)C)C(=O)N12 [Bromocriptine],"164,57"
3,CO[C@H]1C[C@@H]2CC[C@@H](C)[C@@](O)(O2)C(=O)C(=O)N2CCCC[C@H]2C(=O)O[C@H]([C@H](C)C[C@@H]2CC[C@@H](O)[C@H](OC)C2)CC(=O)[C@H](C)/C=C(\C)[C@@H](O)[C@@H](OC)C(=O)[C@H](C)C[C@H](C)/C=C/C=C/C=C/1C [Rapamycin],"46,9"
4,CC[C@@]1([C@@H]2O[C@@H]([C@H]3O[C@@](O)(CO)[C@H](C)C[C@@H]3C)C[C@@H]2C)CC[C@H]([C@]2(C)CC[C@]3(C[C@H](O)[C@@H](C)[C@@H]([C@@H](C)[C@@H](OC)[C@H](C)C(=O)O)O3)O2)O1 [Monensin],"254,31"
5,"Cn1c(=O)c2c(ncn2CC(O)CO)n(C)c1=O (stereo not drawn) [7-(2,3-Dihydroxypropyl)theophylline]","195,44"
6,CC(C)C[C@H]1C(=O)N2CCC[C@H]2[C@]2(O)O[C@](NC(=O)[C@@H]3C=C4c5cccc6[nH]c(Br)c(c56)C[C@H]4N(C)C3)(C(C)C)C(=O)N12.CS(=O)(=O)O [Bromcriptine mesilate],"59,71"
7,N=C(N)c1ccc2cc(OC(=O)c3ccc(N=C(N)N)cc3)ccc2c1 [Nafamostat],"166,53"
8,Teicoplanin,"145,39"
9,C[C@H]1O[C@H](O[C@H]2[C@H](O)[C@@H](O)[C@@H](O)[C@H](O)[C@@H]2O)[C@@H](N)C[C@@H]1NC(=N)C(=O)O [Kasugamycin],"88,55"
10,"NCCCC(N)(C(=O)O)C(F)F (stereo not drawn) [DFMO (Difluoromethylomithine), Difluoromethylomithine]","142,66"
11,CN[C@H]1C(=O)N[C@@H]2Cc3ccc(cc3)Oc3cc4cc(c3O[C@@H]3O[C@H](C(=O)O)[C@@H](O)[C@H](O)[C@H]3NC(=O)CCCCCCCCC(C)C)Oc3ccc(cc3Cl)[C@@H](O)[C@@H]3NC(=O)[C@H](NC(=O)[C@@H]4NC(=O)[C@@H](NC2=O)c2cc(cc(O)c2Cl)Oc2cc1ccc2O)c1ccc(O)c(c1)-c1c(O[C@H]2O[C@H](CO)[C@@H](O)[C@H](O)[C@@H]2O)cc(O)cc1[C@@H](C(=O)NCCCN(C)C)NC3=O [Dalbavancin],"136,29"
12,Abamectin,"151,97"
13,CN[C@H](CC(C)C)C(=O)N[C@H]1C(=O)N[C@@H](CC(N)=O)C(=O)N[C@H]2C(=O)N[C@H]3C(=O)N[C@H](C(=O)N[C@H](C(=O)O)c4cc(O)cc(O)c4-c4cc3ccc4O)[C@H](O[C@H]3C[C@](C)(N)[C@@H](O)[C@H](C)O3)c3ccc(c(Cl)c3)Oc3cc2cc(c3O[C@@H]2O[C@H](CO)[C@@H](O)[C@H](O)[C@H]2O[C@H]2C[C@](C)(NCc3ccc(-c4ccc(Cl)cc4)cc3)[C@@H](O)[C@H](C)O2)Oc2ccc(cc2Cl)[C@H]1O [Oritavancin],"163,24"
14,CC[C@@]1(O)C(=O)OCc2c1cc1n(c2=O)Cc2cc3ccccc3nc2-1 [Camptothecin],"57,75"
15,Nc1ncn([C@@H]2O[C@H](CO)[C@@H](O)[C@H]2O)c(=O)n1 [Azacytidine],"228,06"

# Same assay, conditions: Severe acute respiratory syndrome coronavirus 2, Vero C1008, 72 h
row,Compound,EC50 [nM]
1,CC[C@@H](C(=O)[C@@H](C)[C@@H](O)[C@H](C)[C@@H]1O[C@@H]([C@@H](CC)C(=O)O)CC[C@@H]1C)[C@H]1O[C@]2(C=C[C@@H](O)[C@]3(CC[C@@](C)([C@H]4CC[C@](O)(CC)[C@H](C)O4)O3)O2)[C@H](C)C[C@@H]1C [Salinomycin],200 ± 100
2,CC[C@H]1CN2CCc3cc(OC)c(OC)cc3[C@@H]2C[C@@H]1C[C@H]1NCCc2cc(OC)c(OC)cc21 [Emetine],< 10

# Same assay, conditions: Severe acute respiratory syndrome coronavirus 2, Vero C1008; infected Vero-E6 cells, moi 0.1; 72 h; Mean ± SD, n = 3
row,Compound,EC50 [nM]
1,"COC1=CC(c2cc3ccccc3[nH]2)=N/C1=C\c1[nH]c(C)cc1C [Obatoclax (Mesylate), Obatoclax]",300 ± 100
2,Cc1c(O)cccc1C(=O)N[C@@H](CSc1ccccc1)[C@H](O)CN1C[C@H]2CCCC[C@H]2C[C@H]1C(=O)NC(C)(C)C [Nelfinavir],2100 ± 600
3,COC(=O)C[C@](O)(CCCC(C)(C)O)C(=O)O[C@@H]1C(OC)=C[C@]23CCCN2CCc2cc4c(cc2[C@H]13)OCO4 [Homoharringtonine],30 ± 20

# Same assay, conditions: area under the dose-response curve of viability of virus-infected Vero-E6 cells; moi 0.1; 72 h; 7 concentrations; decimal comma
row,Compound,AUC
1,CC(=O)N[C@H]1[C@H]([C@H](O)[C@H](O)CO)OC(C(=O)O)=C[C@@H]1N=C(N)N [Zanamivir],"113,54"
2,Cc1cc(CCCOc2c(C)cc(-c3noc(C(F)(F)F)n3)cc2C)on1 [Pleconaril],"141,75"
3,CCN(CCO)CCCC(C)Nc1ccnc2cc(Cl)ccc12 (stereo not drawn) [Hydroxychloroquine],"147,63"
4,Nc1ccn(C[C@@H](CO)OCP(=O)(O)O)c(=O)n1 [Cidofovir],"144,69"
5,CCN(CC)CCCC(C)Nc1c2ccc(Cl)cc2nc2ccc(OC)cc12 (stereo not drawn) [Quinacrine dihydrochloride],"105,63"
6,"CC(C)C[C@H](NC(=O)[C@H](Cc1ccccc1)NC(=O)c1cnccn1)B(O)O [Bortezomib (PS-341), Bortezomib]","68,67"
7,Cc1c(-c2ccc(-c3ccccc3F)cc2)nc2ccc(F)cc2c1C(=O)O [Brequinar],"260,54"
8,CN(Cc1cc(Br)cc(Br)c1N)C1CCCCC1 [Bromhexine HCl],"124,95"
9,O=C(c1ccc(OCCN2CCCCC2)cc1)c1c(-c2ccc(O)cc2)sc2cc(O)ccc12 [Raloxifene],"199,57"
10,O=c1[nH]c(=O)n([C@H]2C[C@H](O)[C@@H](CO)O2)cc1C(F)(F)F [Trifluridine],"107,17"
11,O=C(O)[C@H]1C2CCC(CC2)[C@@H]1Nc1nc(-c2c[nH]c3ncc(F)cc23)ncc1F [Pimodivir],"126,91"
12,COc1ccc2[nH]c([S+]([O-])Cc3ncc(C)c(OC)c3C)nc2c1 (stereo not drawn) [Omeprazole],"139,02"
13,"NC(=O)c1nc(F)c[nH]c1=O [Favipiravir (T-705), Favipiravir]","136,64"
14,CCCCOc1cc(C(=O)NCCN(CC)CC)c2ccccc2n1 [Dibucaine],"214,34"
15,C[C@H]1[C@H](OC(=O)CCC(=O)O)O[C@@H]2O[C@@]3(C)CC[C@H]4[C@H](C)CC[C@@H]1[C@@]24OO3 [Artesunate],"222,25"
16,CNCCC(Oc1ccc(C(F)(F)F)cc1)c1ccccc1 (stereo not drawn) [Fluoxetine],"104,37"
17,COc1c(C)c2c(c(O)c1C/C=C(\C)CCC(=O)O)C(=O)OC2 [Mycophenolic acid],"103,74"

row,Compound,AUC
1,CCCCNc1cc(C(=O)O)cc(S(N)(=O)=O)c1Oc1ccccc1 [Bumetanide],"87,85"
2,CC12CC3CC(C)(C1)CC(N)(C3)C2 [Memantine],"115,78"
3,CN(C)CCCN1c2ccccc2Sc2ccc(Cl)cc21 [Chlorpromazine hydrochloride],"86,52"
4,CN(C)C(=O)COC(=O)Cc1ccc(OC(=O)c2ccc(NC(=N)N)cc2)cc1 [Camostat],"88,41"
5,CC(=O)OCC(CCn1cnc2cnc(N)nc21)COC(C)=O [Famciclovir],"149,52"
6,C/C(O)=C(\C#N)C(=O)Nc1ccc(C(F)(F)F)cc1 [Teriflunomide],"72,87"
7,CC(C)Nc1nc2cc(Cl)c(Cl)cc2n1[C@H]1O[C@@H](CO)[C@H](O)[C@@H]1O [Maribavir],"145,81"
8,COc1ccc2c(c1)c(CC(=O)O)c(C)n2C(=O)c1ccc(Cl)cc1 [Indomethacin],"104,51"
9,C#Cc1cccc(Nc2ncnc3cc(OCCOC)c(OCCOC)cc23)c1 [Erlotinib],"103,46"
10,CC[C@H](C)C(=O)O[C@H]1C[C@@H](C)C=C2C=C[C@H](C)[C@H](CC[C@@H]3C[C@@H](O)CC(=O)O3)[C@H]21 [Lovastatin],"204,26"
11,O=C1c2c(O)ccc(O)c2C(=O)c2c(NCCNCCO)ccc(NCCNCCO)c21 [Mitoxantrone],"125,09"
12,COc1cccc(N2CCN(C3=Nc4c(F)cccc4[C@H](CC(=O)O)N3c3cc(C(F)(F)F)ccc3OC)CC2)c1 [Letermovir],"134,12"
13,Cc1oncc1C(=O)Nc1ccc(C(F)(F)F)cc1 [Leflunomide],"47,95"
14,CNC(=O)c1cc(Oc2ccc(NC(=O)Nc3ccc(Cl)c(C(F)(F)F)c3)c(F)c2)ccn1 [Regorafenib],"24,12"
15,"CNC(=O)c1cc(Oc2ccc(NC(=O)Nc3ccc(Cl)c(C(F)(F)F)c3)cc2)ccn1 [Sorafenib (BAY 43-9006), Sorafenib]","33,12"
16,CNC(=C[N+](=O)[O-])NCCSCc1ccc(CN(C)C)o1 [Ranitidine],"94,08"
17,CC(C)COCC(CN(Cc1ccccc1)c1ccccc1)N1CCCC1 (stereo not drawn) [Bepridil],"285,95"

# Test system: not listed separately
# Assay: Cytotoxicity in mock-infected Vero-E6 cells (CellTiter-Glo)
# Conditions: African green monkey
row,Compound,CC50 at 72 h [nM]
1,CC[C@@H](C(=O)[C@@H](C)[C@@H](O)[C@H](C)[C@@H]1O[C@@H]([C@@H](CC)C(=O)O)CC[C@@H]1C)[C@H]1O[C@]2(C=C[C@@H](O)[C@]3(CC[C@@](C)([C@H]4CC[C@](O)(CC)[C@H](C)O4)O3)O2)[C@H](C)C[C@@H]1C [Salinomycin],13900 ± 300
2,CC[C@H]1CN2CCc3cc(OC)c(OC)cc3[C@@H]2C[C@@H]1C[C@H]1NCCc2cc(OC)c(OC)cc21 [Emetine],700 ± 400

# Same assay, conditions: African green monkey, mock-infected Vero-E6 cells
row,Compound,CC50 at 72 h [nM]
1,"COC1=CC(c2cc3ccccc3[nH]2)=N/C1=C\c1[nH]c(C)cc1C [Obatoclax (Mesylate), Obatoclax]",2200 ± 1000
2,Cc1c(O)cccc1C(=O)N[C@@H](CSc1ccccc1)[C@H](O)CN1C[C@H]2CCCC[C@H]2C[C@H]1C(=O)NC(C)(C)C [Nelfinavir],9700 ± 400
3,COC(=O)C[C@](O)(CCCC(C)(C)O)C(=O)O[C@@H]1C(OC)=C[C@]23CCCN2CCc2cc4c(cc2[C@H]13)OCO4 [Homoharringtonine],360 ± 600
